Read-outs that look alike come from different tables or passages of the source.
Tests used:
[1] = Solubility in water; format: physicochemical; details: expressed as the free base, listed as free base form
Excerpt: (§1) An example of a drug having a crystalline highly soluble salt form is ziprasidone. Ziprasidone hydrochloride monohydrate has a solubility of about 10 μgA/mL (expressed as the free base) in water, whereas the free base form has a solubility of less than about 0.2 μgA/mL under the same conditions. Thus, crystalline ziprasidone hydrochloride is a solubility-improved form relative to the crystalline free base form of ziprasidone.

[2] = Dissolution in phosphate buffered saline at pH 6.5 (ziprasidone); format: physicochemical; details: PBS pH 6.5, at equilibrium; drug crystallizes as the free base form
Excerpt: as §1
An appropriate MFD solution is the same PBS solution wherein there is also present 7.3 mM sodium taurocholic acid and 1.4 mM of 1-palmitoyl-2-oleyl-sn-glycero-3-phosphocholine.

[3] = Microcentrifuge dissolution test in MFD solution; format: physicochemical; parameters: AUC: concentration or dose not given beside the values; details: for Dissolved Ziprasidone Concentration / AUC: MFD solution pH 6.5, 37° C.; for Dissolved Ziprasidone Concentration: 200 μgA/mL if all dissolved
Procedure: A microcentrifuge dissolution test was performed to verify that ziprasidone hydrochloride monohydrate is a solubility-improved form of ziprasidone. For this test, a sufficient amount of ziprasidone hydrochloride monohydrate was added to a microcentrifuge test tube so that the concentration of ziprasidone would have been 200 μgA/mL, if all of the ziprasidone had dissolved. The tests were run in duplicate. The tubes were placed in a 37° C. temperature-controlled chamber, and 1.8 mL MFD solution at pH 6.5 and 290 mOsm/kg was added to each respective tube. The samples were quickly mixed using a vortex mixer for about 60 seconds. The samples were centrifuged at 13,000 G at 37° C. for 1 minute prior to collecting a sample. The resulting supernatant solution was then sampled and diluted 1:5 (by volume) with methanol. Samples were analyzed by high-performance liquid chromatography (HPLC) at a UV absorbance of 315 nm using a Zorbax RxC8 Reliance column and a mobile phase consisting of 55% (50 mM potassium dihydrogen phosphate, pH 6.5)/45% acetonitrile. Drug concentration was calculated by comparing UV absorbance of samples to the absorbance of drug standards. The contents of each tube were mixed on the vortex mixer and allowed to stand undisturbed at 37° C. until the next sample was taken. Samples were collected at 4, 10, 20, 40, 90, and 1200 minutes following administration to the MFD solution.
A similar test was performed with the crystalline ziprasidone free base as a control, and a sufficient amount of material was added so that the concentration of compound would have been 200 μgA/mL, if all of the ziprasidone had dissolved.
The concentrations of ziprasidone obtained in these tests were used to determine the maximum dissolved concentration of ziprasidone (“MDC90”) and the area under the concentration-versus-time curve (“AUC90”) during the initial ninety minutes.

[4] = format: physicochemical; details: not told, 100 μgA/mL, pH 6.5
Procedure: An Accurel® PP 1E microporous polypropylene membrane was obtained from Membrana GmbH (Wuppertal, Germany). The membrane was washed in isopropyl alcohol and rinsed in methanol in a sonicating bath for 1 minute at ambient temperature, and then allowed to air dry at ambient temperature. The feed side of the membrane was then plasma-treated to render it hydrophilic by placing a sample of the membrane in a plasma chamber. The atmosphere of the plasma chamber was saturated with water vapor at a pressure of 550 mtorr. A plasma was then generated using radio frequency (RF) power inductively coupled into the chamber via annular electrodes at a power setting of 50 watts for 45 seconds. The contact angle of a drop of water placed on the surface of the plasma-treated membrane was less than about 40°. The contact angle of a drop of water placed on the permeate side of the same membrane was greater than about 110°.
A permeate reservoir was formed by gluing a sample of the plasma-treated membrane to a glass tube having an inside diameter of about 1 inch (2.54 cm) using an epoxy-based glue (LOCTITE® E-30CL HYSOL® from Henkel Loctite Corp, Rocky Hill, Conn.). The feed-side of the membrane was oriented so that it was on the outside of the permeate reservoir, while the permeate-side of the membrane was oriented so that it was on the inside of the reservoir. The effective membrane area of the membrane on the permeate reservoir was about 4.9 cm^2. The permeate reservoir was placed into a glass feed reservoir. The feed reservoir was equipped with a magnetic stir bar and the reservoir was placed on a stir plate and the stir rate was set to 100 rpm during the test. The apparatus was placed into a chamber maintained at 37° C. for the duration of the test. Further details of the test apparatus and protocols are presented in co-pending U.S. Patent Application Ser. No. 60/557,897, entitled “Method and Device for Evaluation of Pharmaceutical Compositions,” filed Mar. 30, 2004, incorporated herein by reference.
To form the feed solution, a 1.429 mg (0.5 mgA) sample of CC-1 was weighed into a feed reservoir. (As used herein, “mgA” is milligrams of active drug, reported as the free base, non-salt form, non-hydrate drug molecule.) To this was added 5 mL of the MFD solution previously described, consisting of PBS solution containing 7.3 mM sodium taurocholic acid and 1.4 mM of 1-palmitoyl-2-oleyl-sn-glycero-3-phosphocholine (0.5% NaTC/POPC). […] The feed solution was mixed using a vortex mixer for 1 minute. Before the membrane contacted the feed solution, 5 mL of 60 wt % decanol in decane was placed into the permeate reservoir. Time zero in the test was when the membrane was placed in contact with the feed solution. A […] aliquot of the permeate solution was collected at the times indicated. Samples were then diluted in […] IPA and analyzed using HPLC.
The maximum flux of drug across the membrane (in units of μgA/cm^2-min) was determined by performing a least-squares fit to the data in Table 4 from 0 to 60 minutes to obtain the slope (CC-1: 0.26 μgA/mL-min; Control 1A: 0.13 μgA/mL-min; Control 1B: 0.07 μgA/mL-min), multiplying the slope by the permeate volume (5 mL), and dividing by the membrane area (4.9 cm^2).

Question: Which results are given for `O=C1Cc2cc(CCN3CCN(c4nsc5ccccc45)CC3)c(Cl)cc2N1` [Ziprasidone Free Base, ziprasidone]?
Answer: solubility in water [1]: less than 0.2 μgA/mL; equilibrium solubility [2]: about 0.2 μgA/mL; Dissolved Ziprasidone Concentration ([3]; time 4 min): 1 μgA/mL; Dissolved Ziprasidone Concentration ([3]; time 10 min): 1 μgA/mL; Dissolved Ziprasidone Concentration ([3]; time 20 min): 1 μgA/mL; Dissolved Ziprasidone Concentration ([3]; time 40 min): 2 μgA/mL; Dissolved Ziprasidone Concentration ([3]; time 90 min): 1 μgA/mL; Dissolved Ziprasidone Concentration ([3]; time 1200 min): 2 μgA/mL; AUC ([3]; up to time 4 min): 3 min-μgA/mL; AUC ([3]; up to time 10 min): 11 min-μgA/mL; AUC ([3]; up to time 20 min): 23 min-μgA/mL; AUC ([3]; up to time 40 min): 51 min-μgA/mL; AUC ([3]; up to time 90 min): 120 min-μgA/mL; AUC ([3]; up to time 1200 min): 2000 min-μgA/mL; AUC90 ([3]; area under the concentration-versus-time curve during the initial ninety minutes, MFD solution): 120 min·µgA/mL; MDC90 ([3]; maximum dissolved concentration during the initial ninety minutes, MFD solution): 2 µgA/mL; Ziprasidone Concentration in Permeate ([4]; 0 min): 0.0 μgA/mL; Maximum Flux of Ziprasidone [4]: 0.07 μgA/cm^2-min; Ziprasidone Concentration in Permeate ([4]; 20 min): 0.0 μgA/mL; Ziprasidone Concentration in Permeate ([4]; 40 min): 3.3 μgA/mL; Ziprasidone Concentration in Permeate ([4]; 60 min): 3.4 μgA/mL; Ziprasidone Concentration in Permeate ([4]; 90 min): 5.4 μgA/mL; Ziprasidone Concentration in Permeate ([4]; 120 min): 6.8 μgA/mL; Ziprasidone Concentration in Permeate ([4]; 180 min): 9.2 μgA/mL; Ziprasidone Concentration in Permeate ([4]; 245 min): 11.5 μgA/mL; Ziprasidone Concentration in Permeate ([4]; 360 min): 14.7 μgA/mL
